Laboratory results: patent publication US11045435B2, “Methods for treating ocular diseases” (NATUREWISE BIOTECH & MEDICALS CORPORATION, priority 2016, dated 2021)

Key:
HUVECs [1] = assay: t-BHP-induced injury in HUVECs (MTT); format: cell-based, human; details: 12 h; for reversal of t-BHP-induced injury: 200 I-M t-BHP; for enhancement of t-BHP-induced injury: 10 μg/ml
Procedure: (§1) MTT assay was used to measure the viability of ARPE-19 cells and HUVECs. 2×10^5 ARPE-19 cells or 5×10^4 HUVECs were seeded in 96-well plates ([…]) and allowed to grow overnight. Negative control was prepared by adding 100 μl medium without cells. The cells were then treated with fresh medium with COMPOUND I (0.03, 0.1, 0.3, 1, 3 and 10 μg/ml) and/or oxidants (NaIO3, H2O2, t-BHP and NaN3) for 12, 24, or 72 hours (200 μl/well). The vehicle control group was treated with vehicle. 20 μl MTT (5 mg/ml) was added to wells, and incubated for another 4 h. After incubation, the medium was discarded and 100 μl DMSO was added to solubilize formazan produced from MTT by the viable cells. Absorbance was measured at 570 nm using a microplate reader (Bio-Rad Laboratories, Inc., CA). Cells viability was calculated according to the following formula: Viability of cells (%)=(absorbance in tested sample−absorbance in negative control)/(absorbance in vehicle control−absorbance in negative control)×100%.

HUVECs [2] = assay: H2O2-induced injury in HUVECs (MTT); format: cell-based, human; details: 10 μg/ml, 24 h
Procedure: as §1

ARPE-19 cells [3] = assay: Hypoxia-induced injury in ARPE-19 cells (MTT); format: cell-based, human; details: 72 h
Procedure: as §1
Cells were allowed to attach overnight, and then exposed to COMPOUND I or vehicle under hypoxic condition for 72 h. Hypoxic conditions (1% O2, 5% CO2 and 94% N2) were maintained by using a temperature and humidity controlled environmental C-chamber by O2 and CO2 controllers (Proox Model 110 and Pro CO2 model 120, Biospherix Ltd., Redfield, N.Y., USA) with N2 and CO2 gas sources.

GFAP mRNA = assay: Gene expression of GFAP in retina, quantitative real-time PCR, streptozotocin-induced diabetic retinopathy; format: in vivo, Sprague-Dawley female rats
Procedure: After a 16-hour fasting, Sprague-Dawley female rats weighing 200-220 g received a single 60 mg/kg intraperitoneal injection of Streptozotocin (STZ; Sigma-Aldrich, St. Louis, Md.) in 10 mM sodium citrate buffer (pH 4.5; Sigma-Aldrich, St. Louis, Md.). Control rats were fasted and received the buffer solution alone. Rats with blood glucose levels higher than 375 mg/dL 7 days after receiving STZ were considered to be diabetic. Diabetic rats were treated with 1% COMPOUND I, 0.5% COMPOUND I or vehicle eye drops 3 time a day for 6 weeks.
After rat were sacrificed as described previously, the eyes were enucleated and bisected, and the retinas were peeled from the eyecups and immediately homogenized in RNA isolation agent (RNeasy®Plus Mini Kit, Qiagen, Valencia, Calif.). The first-strand cDNA was prepared from the mRNA by using the commercial kit in accordance with the manufacturer's protocol (High-capacity reverse transcription kits, AB life technologies, Austin, Tex.). Real-time PCR was performed in 96-well plates using standard protocols with a fluorescent detection dye (SYBRR Green PCR Master Mix, AB life technologies, Austin, Tex.) in a real-time detection system (iCycler. Bio-Rad). All PCR reactions were a final volume of 20 μl comprised of fluorescent dye/PCR mix, final concentration 0.2 μM forward and reverse primers, and 1 ng of cDNA. The PCR cycle parameters were as follows: polymerase activation for 15 minutes at 90° C., 40 cycles of 95° C. for 15 seconds, 60° C. for 30 seconds and 72° C. for 1 minute. The quantity of mRNA was calculated by normalizing the CT of the β-actin housekeeping gene in the same sample, according to the following formula: The average β-actin CT (each multiplex PCR was performed in triplicate) was subtracted from the average target gene CT; the results represented the ΔCT. This ΔCT is specific and can be compared with the ΔCT of a calibration sample. The subtraction of control ΔCT from the ΔCT of the target gene is referred ΔΔCT. The relative quantification of expression of a target gene (in comparison with control) was determined by using 2^−ΔΔCT.

ARPE-19 cells [4] = assay: t-BHP-induced injury in ARPE-19 cells (MTT); format: cell-based, human; details: 0.03 μg/ml to 10 µg/ml, 12 h
Procedure: as §1

ARPE-19 cells [5] = assay: H2O2-induced injury in ARPE-19 cells (MTT); format: cell-based, human; details: 3 μg/ml and 10 μg/ml; 400, M and 600 μM H2O2; 24 h
Procedure: as §1

In the case of `COc1ccc(COc2c(/C=C/C(=O)NO)ccc(OC)c2CC=C(C)C)cc1` [COMPOUND I], the “reversal of t-BHP-induced injury” value (HUVECs [1]; 1 μg/ml) was 26%, the “reversal of t-BHP-induced injury” value (HUVECs [1]; 3 μg/ml) was 28% and the “enhancement of t-BHP-induced injury” value (HUVECs [1]; 50 μM t-BHP) was 40%. For the same compound, the “enhancement of t-BHP-induced injury” value (HUVECs [1]; 100 μM t-BHP) was 20%, the “enhancement of t-BHP-induced injury” value (HUVECs [1]; 200 μM t-BHP) was 51% and the “enhancement of H2O2-induced injury” value (HUVECs [2]; 200 μM H2O2) was 41%. For the same compound, the “enhancement of H2O2-induced injury” value (HUVECs [2]; 400 μM H2O2) was 10%, the “effect on cells in hypoxic condition” value (ARPE-19 cells [3]; 0.03 μg/ml to 10 μg/ml except 3 μg/ml) was “had no effect” and the “increase of viability in hypoxic condition” value (ARPE-19 cells [3]; 3 μg/ml, 1% O2) was 22%. For the same compound, the “GFAP gene expression vs diabetic control group, in words” value (GFAP mRNA; 0.5% and 1%) was “significantly down-regulated”, the “mRNA expression of GFAP, DR animals as 100%” value (GFAP mRNA; 0.5% eye drops tid 6 weeks) was 60% and the “mRNA expression of GFAP, DR animals as 100%” value (GFAP mRNA; 1% eye drops tid 6 weeks) was 51%. For the same compound, the “effect on 200 μM t-BHP-induced injury” value (ARPE-19 cells [4]) was “reversed” and the “effect on H2O2-induced injuries” value (ARPE-19 cells [5]) was “reversed”.
